Consider four molecules from PMC4166032 (Bioconjugate Chemistry, 2014).

Read-outs that look alike come from different tables or passages of the source.

In general, IC50 refers to the concentration that inhibits the measured activity by half. The Ki is a dissociation constant, usually derived from enzyme kinetics or from competition with a known ligand.

The target in series [1] is T1, GST-hPXR-LBD (Homo sapiens, UniProt O75469).
T1 sequence (O75469 146-433 limits assumed): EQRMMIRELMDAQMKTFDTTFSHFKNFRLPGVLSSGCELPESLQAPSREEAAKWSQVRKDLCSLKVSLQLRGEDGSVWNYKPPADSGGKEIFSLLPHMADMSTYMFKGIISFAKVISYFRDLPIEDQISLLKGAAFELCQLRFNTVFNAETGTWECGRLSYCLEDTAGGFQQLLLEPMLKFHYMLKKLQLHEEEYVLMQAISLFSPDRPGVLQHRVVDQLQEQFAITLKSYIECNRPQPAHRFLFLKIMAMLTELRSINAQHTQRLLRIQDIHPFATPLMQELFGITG
Nature of the series: biochemical. The conditions noted are these: 30 min.

A further series concerns PXR. The conditions noted are these: cited from earlier work; for IC50: read-out: reported IC50, BODIPY FL vinblastine (4) as fluorescent probe.
In series [2] the target is T1, GST-hPXR-LBD.
Series [3] concerns the target T1, GST-hPXR-LBD. Nature of the series: biochemical.

Take `C[C@@H]1C(=O)O[C@H]2C[C@@]34[C@H]5C[C@@H](C(C)(C)C)[C@]36[C@@H](OC(=O)[C@@H]6O)O[C@@]4(C(=O)O5)[C@]21O` [ginkgolide A (8), ginkgolide A]: the IC50 against GST-hPXR-LBD [1] (IC50 with 50 nM 20, 50 nM BODIPY FL vindoline (20) probe) is 20.7 µM; on GST-hPXR-LBD [1] (IC50 with 100 nM 20, 100 nM BODIPY FL vindoline (20) probe, laboratory assay buffer, 1.1% DMSO), 37.7 µM; with PXR it was 13.7 µM.
For the molecule `CCC12C=CCN3CC[C@@]4(c5ccc(OC)cc5N(C)[C@H]4[C@@](O)(C(=O)OC)[C@@H]1OC(C)=O)[C@@H]32` (some centres unmarked) [vindoline (14), vindoline], on GST-hPXR-LBD [2], the “inhibitory activity at 100 μM” value was 93%. At GST-hPXR-LBD [3], this molecule came in with a 50% inhibitory concentration (IC50) of 12.9 µM and an inhibitory constant (Ki) of 11.2 µM.
For the molecule `CC[C@]1(O)C[C@@H]2CN(CCc3c([nH]c4ccccc34)[C@@](C(=O)OC)(c3cc4c(cc3OC)N(C)[C@H]3[C@@](O)(C(=O)OC)[C@H](OC(C)=O)[C@]5(CC)C=CCN6CC[C@]43[C@@H]65)C2)C1` [vinblastine (10), vinblastine], the PXR-specific binding affinity entry in the series with PXR is “low PXR-specific binding affinity”.
For `Clc1ccccc1C(c1ccccc1)(c1ccccc1)n1ccnc1` [clotrimazole (6), clotrimazole], the IC50 with PXR is 1.94 µM.
